# Test results reported in the supplement of paper PMC10307832.
# Tests used:
# Assay in all cases: relative viability (nuclei count vs DMSO), 5 days (fraction); higher = more cells survive
# Pazopanib + Foretinib = compound: Cc1ccc(Nc2nccc(N(C)c3ccc4c(C)n(C)nc4c3)n2)cc1S(N)(=O)=O [Pazopanib] + COc1cc2c(Oc3ccc(NC(=O)C4(C(=O)Nc5ccc(F)cc5)CC4)cc3F)ccnc2cc1OCCCN1CCOCC1 [Foretinib] (partner 0.25 µM)
# Summary of the method: (§1)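 Nuclei were stained with Hoechst during a one-step fixation (final 0.05% Triton X-100, 1% formaldehyde, 1 ug/ml Hoechst) carried out 5 days after dosing, then counted on 4× images. The cells, lung cancer lines in 1536-well plates, had been dosed by pin tool the day after seeding with one drug alone or a fixed anchor-drug dose plus five library-drug doses (not always all listed) in √10 steps. Relative viability is the nuclei count in treated wells divided by that in vehicle wells, and each value is the median of duplicate plates.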
# Pazopanib + Linsitinib = compound: Cc1ccc(Nc2nccc(N(C)c3ccc4c(C)n(C)nc4c3)n2)cc1S(N)(=O)=O [Pazopanib] + C[C@]1(O)C[C@@H](c2nc(-c3ccc4ccc(-c5ccccc5)nc4c3)c3c(N)nccn32)C1 [Linsitinib] (partner 1 µM)
# Summary of the method: as §1
# Pazopanib + Bortezomib = compound: Cc1ccc(Nc2nccc(N(C)c3ccc4c(C)n(C)nc4c3)n2)cc1S(N)(=O)=O [Pazopanib] + CC(C)C[C@H](NC(=O)[C@H](Cc1ccccc1)NC(=O)c1cnccn1)B(O)O [Bortezomib] (partner 0.002 µM)
# Summary of the method: as §1
# Ponatinib + Tozasertib = compound: Cc1ccc(C(=O)Nc2ccc(CN3CCN(C)CC3)c(C(F)(F)F)c2)cc1C#Cc1cnc2cccnn12 [Ponatinib] + Cc1cc(Nc2cc(N3CCN(C)CC3)nc(Sc3ccc(NC(=O)C4CC4)cc3)n2)n[nH]1 [Tozasertib] (partner 0.1 µM)
# Summary of the method: as §1
Cell Line,relative viability (Pazopanib + Foretinib; first compound 0.01 µM),relative viability (Pazopanib + Foretinib; first compound 0.03162 µM),relative viability (Pazopanib + Foretinib; first compound 0.1 µM),relative viability (Pazopanib + Foretinib; first compound 0.3162 µM),relative viability (Pazopanib + Foretinib; first compound 1 µM),relative viability (Pazopanib + Linsitinib; first compound 0.01 µM),relative viability (Pazopanib + Linsitinib; first compound 0.03162 µM),relative viability (Pazopanib + Linsitinib; first compound 0.1 µM),relative viability (Pazopanib + Linsitinib; first compound 0.3162 µM),relative viability (Pazopanib + Linsitinib; first compound 1 µM),relative viability (Pazopanib + Bortezomib; first compound 0.01 µM),relative viability (Pazopanib + Bortezomib; first compound 0.03162 µM),relative viability (Pazopanib + Bortezomib; first compound 0.1 µM),relative viability (Pazopanib + Bortezomib; first compound 0.3162 µM),relative viability (Pazopanib + Bortezomib; first compound 1 µM),relative viability (Ponatinib + Tozasertib; first compound 0.002 µM),relative viability (Ponatinib + Tozasertib; first compound 0.006325 µM),relative viability (Ponatinib + Tozasertib; first compound 0.06325 µM),relative viability (Ponatinib + Tozasertib; first compound 0.2 µM)
201T,1.13,1.09,1.1,1.15,0.996,0.942,1.04,1.06,1.06,0.989,1.09,1.14,1.13,1.1,1.11,0.924,1.01,0.966,0.926
A549,0.905,1.03,1.16,0.985,0.913,0.452,0.638,0.591,0.598,0.757,,,,,,,,,
A-427,0.971,1.21,1.15,1.02,1.05,1.09,1.09,1.13,1.14,1.16,0.934,1.02,0.929,0.922,1.02,0.23,0.227,0.198,0.167
ABC-1,0.843,1.06,,0.975,1.04,0.835,0.917,0.751,0.738,0.779,0.257,0.293,0.212,0.316,0.343,0.213,0.147,0.141,0.204
BEN,,0.656,0.517,0.804,0.696,0.819,0.969,0.894,0.956,0.898,0.581,0.725,0.76,0.917,0.874,0.544,0.52,0.486,0.533
CAL-12T,1.03,1.06,1.17,1.05,0.97,0.83,0.927,0.792,0.941,0.981,1.05,1.01,0.843,1.04,1.35,0.317,0.259,0.268,0.265
COR-L23,0.916,1.03,0.922,0.986,0.989,1.02,1.01,0.988,1.15,0.975,1.23,1.08,1.12,0.935,1.02,0.209,0.213,0.171,0.142
COR-L 105,0.926,0.87,1.15,1.04,1.18,0.909,0.964,1.1,0.822,1.21,0.903,0.859,0.684,0.765,0.977,0.304,0.343,0.372,0.316
Calu-6,0.89,0.954,0.93,0.848,0.803,0.865,1.07,0.957,0.908,1.04,0.928,1.06,1.04,0.932,0.957,,,,
ChaGo-K-1,0.934,0.909,1.01,0.884,0.946,,,,,,1.12,1.1,0.952,0.91,0.951,0.234,0.213,0.177,0.209
EBC-1,0.095,0.104,0.0934,0.103,0.0962,0.964,0.979,0.977,0.922,0.979,0.524,0.602,0.712,0.519,0.65,,,,
EKVX,0.961,0.866,0.62,0.901,0.942,0.95,1.04,0.869,1.03,1.04,1.09,1.02,1,0.996,1.02,0.386,0.45,0.375,0.314
EMC-BAC-2,,0.991,1.01,1.02,1.06,0.758,0.855,0.864,0.84,0.803,0.889,1.11,1.1,1.04,1.22,0.285,0.275,0.277,0.239
EPLC-272H,,0.762,0.693,0.758,0.793,0.98,1.13,1.25,1.26,1.17,0.765,1.07,0.843,1.12,1.1,0.246,0.394,0.365,0.307
H3255,0.625,0.838,0.794,0.84,0.939,0.888,0.954,1.01,0.814,1.03,0.695,0.723,0.75,1.06,0.92,0.606,0.638,0.561,0.459
HARA,0.902,0.977,1,0.884,0.95,0.916,0.862,1,1.03,1.03,1.14,1.08,1.25,1.22,1.08,0.0958,0.111,0.0906,0.0762
HCC-15,0.999,1.01,1.16,1.01,1.08,0.872,0.905,0.94,0.882,1.03,1.05,1.18,1.04,0.976,1.05,0.401,0.479,0.432,0.328
HCC-44,,,,,,0.575,0.673,0.678,0.582,0.722,0.942,0.877,0.891,0.899,0.989,0.946,0.882,0.87,0.595
